Drawing on patent US20250195521A1 (Revolution Medicines, Inc., priority 2020, published 2025), this text covers EC50 and IC50 for 22 compounds.

Structures are written as SMILES. Where two headings read alike, the source gives them in different places.

Test [1] has as its system K-Ras G12C (NCI-H358 cells). Put plainly: Potency assay: pERK in NCI-H358 cells. In kind it is cell-based, human. Conditions: NCI-H358 cells, 4 hours, read-out: pERK EC50 (H358 KRAS G12C). The method in brief:
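Cells plated the day before were exposed for 4 h at 37° C, 5% CO2 to a 10-point, 3-fold DMSO dilution series (10 mM top stock), in duplicate. Phospho-ERK was read by AlphaLISA SureFire Ultra or by In-Cell Western with DRAQ5 DNA stain, and IC50 came from a 4-parameter sigmoidal fit.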

Test [2] concerns the target K-Ras G12C(GMP-PNP) binding to BRAF RBD (Homo sapiens (Human), UniProt P01116+P62937, G12C). Put plainly: Disruption of BRAF RBD interaction with K-Ras (FRET / MOA assay), K-Ras G12C. In kind it is biochemical. The method in brief: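 TR-FRET readout: after 3 h compound incubation at 25 °C, anti-His Eu and anti-GST allophycocyanin (10 and 50 nM final) added for a further 1.5 h. Dilution series was 10-point, 3-fold, top 30 μM final. Ras–cyclophilin A ternary complex formation blocks the BRAF RBD interaction; IC50 derived from reduced FRET ratio relative to DMSO.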

Test [3] deals with Capan-1 cells (K-Ras G12V). Put plainly: CellTiter-Glo cell viability, Capan-1. Format: cell-based, human. Conditions: K-Ras G12V, 5-day treatment, read-out: Capan-1 Cell Viability IC50. The method in brief:
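Viability read by luminescence on day 5 after direct compound addition to cells, following ~30 min room-temperature equilibration. Values expressed as percent of mean DMSO signal, curves fitted with a four-parameter logistic model.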

K-Ras G12C(GMP-PNP) binding to BRAF RBD, sequence (P01116 other isoform, or with tags, fused parts or gaps G12C): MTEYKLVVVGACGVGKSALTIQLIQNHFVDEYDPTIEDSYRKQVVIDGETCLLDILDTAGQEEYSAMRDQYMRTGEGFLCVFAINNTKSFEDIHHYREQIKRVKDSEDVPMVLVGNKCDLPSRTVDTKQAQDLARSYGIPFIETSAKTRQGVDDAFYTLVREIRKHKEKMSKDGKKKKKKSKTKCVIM
K-Ras G12C(GMP-PNP) binding to BRAF RBD, sequence (P62937 whole entry): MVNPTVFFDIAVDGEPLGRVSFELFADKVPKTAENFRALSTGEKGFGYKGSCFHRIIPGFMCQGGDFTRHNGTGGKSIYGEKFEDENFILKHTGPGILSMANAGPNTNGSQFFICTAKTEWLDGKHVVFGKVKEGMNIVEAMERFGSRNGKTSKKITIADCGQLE

Regarding `CCn1c(-c2cccnc2[C@H](C)OC)c2c3cc(ccc31)-c1csc(n1)C[C@H](NC(=O)[C@H](C(C)C)N(C)C(=O)N1CCC[C@H](N(C)C)CC1)C(=O)N1CCC[C@H](N1)C(=O)OCC(C)(C)C2` [Compound A493], in test [1] (Homo sapiens), the EC50 is < 5000 nM. Moreover, the IC50 in test [2] (read-out: KRAS G12C FRET IC50) lay within 10 to 100 nM; in test [3] (Homo sapiens, CAPAN-1, 120 h) it was 100 to 1000 nM.
The corresponding values for `CCn1c(-c2cccnc2[C@H](C)OC)c2c3cc(ccc31)-c1csc(n1)C[C@H](NC(=O)[C@H](C(C)C)N(C)C(=O)N(C)C1(C)COC1)C(=O)N1CCC[C@H](N1)C(=O)OCC(C)(C)C2` [Compound A527] are < 5000 nM, < 10 nM and 10 to 100 nM.
As for `CCn1c(-c2cccnc2[C@H](C)OC)c2c3cc(ccc31)-c1csc(n1)C[C@H](NC(=O)[C@H](C(C)C)N(C)C(=O)N1C[C@@H](C)N(C)C[C@@H]1C)C(=O)N1CCC[C@H](N1)C(=O)OCC(C)(C)C2` [Compound A292], the EC50 in test [1] (Homo sapiens) was < 5000 nM. Moreover, the IC50 was < 10 nM in test [2] (read-out: KRAS G12C FRET IC50) and 100 to 1000 nM in test [3] (Homo sapiens, CAPAN-1, 120 h).
Take `CCn1c(-c2cccnc2[C@H](C)OC)c2c3cc(ccc31)-c1csc(n1)[C@@H](OCC1CCN(C)CC1)[C@H](NC(=O)[C@H]1C[C@@H]1C)C(=O)N1CCC[C@H](N1)C(=O)OCC(C)(C)C2` [Compound A451, (1S,2S)—N-((6^3S,3S,4S,Z)-1^1-ethyl-1^2-(2-((S)-1-methoxyethyl)pyridin-3-yl)-10,10-dimethyl-3-((1-methylpiperidin-4-yl)methoxy)-5,7-dioxo-6^1,6^2,6^3,6^4,6^5,6^6-hexahydro-1^1H-8-oxa-2 (4,2)-thiazola-1 (5,3)-indola-6 (1,3)-pyridazinacycloundecaphane-4-yl)-2-methylcyclopropane-1-carboxamide]: in test [1], the EC50 was < 5000 nM. Besides, the IC50 is 100 to 1000 nM in test [2] (read-out: KRAS G12C FRET IC50) and 10 to 100 nM in test [3].
On to `CCN(CC)C(=O)N(C)[C@H](C(=O)N[C@H]1Cc2nc(cs2)-c2ccc3c(c2)c(c(-c2cccnc2[C@H](C)OC)n3CC)CC(C)(C)COC(=O)[C@@H]2CCCN(N2)C1=O)C(C)C` [Compound A351], for which the EC50 in test [1] (Homo sapiens) was < 5000 nM. In addition, the IC50 in test [2] (read-out: KRAS G12C FRET IC50) is < 10 nM; in test [3] (Homo sapiens, CAPAN-1, 120 h) it was 100 to 1000 nM.
With `CCn1c(-c2cccnc2[C@H](C)OC)c2c3cc(ccc31)-c1cc(O)cc(c1)C[C@H](NC(=O)[C@@H]1[C@@H](C)CCCN1C(C)=O)C(=O)N1CCC[C@H](N1)C(=O)OCC(C)(C)C2` [Compound A324], the EC50 in test [1] (Homo sapiens) was < 5000 nM. Besides, the IC50 in test [2] (read-out: KRAS G12C FRET IC50) was < 10 nM; in test [3] (Homo sapiens, CAPAN-1, 120 h) it was 1000 to 10000 nM.
The corresponding values for `CCn1c(-c2cccnc2[C@H](C)OC)c2c3cc(ccc31)-c1cc(O)cc(c1)C[C@H](NC(=O)[C@@H]1[C@H]3C[C@H]3CN1C(C)=O)C(=O)N1CCC[C@H](N1)C(=O)OCC(C)(C)C2` [Compound A207] are < 5000 nM, 10 to 100 nM and > 10000 nM.
For `CCn1c(-c2cccnc2[C@H](C)OC)c2c3cc(ccc31)-c1cc(O)cc(c1)C[C@H](NC(=O)[C@H](C(C)C)N(C)C(=O)C1CCC3(CCOC3)O1)C(=O)N1CCC[C@H](N1)C(=O)OCC(C)(C)C2` (stereo partly drawn) [Compound A409], in that order: < 5000 nM, 100 to 1000 nM and 100 to 1000 nM.
Regarding `CCn1c(-c2cc(N3CCN(C)CC3)cnc2[C@H](C)OC)c2c3cc(ccc31)-c1nc(co1)C[C@H](NC(=O)[C@H]1[C@H](C)[C@@H]1C)C(=O)N1CCC[C@H](N1)C(=O)OCC(C)(C)C2` [Compound A391, (1r,2R,3S)—N-((6^3S,4S,Z)-1^1-ethyl-1^2-(2-((S)-1-methoxyethyl)-5-(4-methylpiperazin-1-yl)pyridin-3-yl)-10,10-dimethyl-5,7-dioxo-6^1,6^2,6^3,6^4,6^5,6^6-hexahydro-1^1H-8-oxa-2 (2,4)-oxazola-1 (5,3)-indola-6 (1,3)-pyridazinacycloundecaphane-4-yl)-2,3-dimethylcyclopropane-1-carboxamide], in test [1], the EC50 was < 5000 nM. In addition, the IC50 was < 10 nM in test [2] (read-out: KRAS G12C FRET IC50) and 1000 to 10000 nM in test [3].
As to `CCn1c(-c2cccnc2[C@H](C)OC)c2c3cc(ccc31)-c1csc(n1)C[C@H](NC(=O)[C@H](C(C)C)N(C)C(=O)N1CC(N3CCOCC3)C1)C(=O)N1CCC[C@H](N1)C(=O)OCC(C)(C)C2` [Compound A338], the EC50 in test [1] (Homo sapiens) was < 5000 nM. For the same compound, the IC50 in test [2] (read-out: KRAS G12C FRET IC50) was 10 to 100 nM; in test [3] (Homo sapiens, CAPAN-1, 120 h), 10 to 100 nM.
For the compound `CCn1c(-c2cccnc2[C@H](C)OC)c2c3cc(ccc31)-c1csc(n1)C[C@H](NC(=O)[C@H](C(C)C)N(C)C(=O)N1CC[C@@H]1CN)C(=O)N1CCC[C@H](N1)C(=O)OCC(C)(C)C2` [Compound A558], the EC50 in test [1] (Homo sapiens) was < 5000 nM. The IC50 in test [2] (read-out: KRAS G12C FRET IC50) was 10 to 100 nM; in test [3] (Homo sapiens, CAPAN-1, 120 h), 100 to 1000 nM.
As for `CCn1c(-c2cccnc2[C@H](C)OC)c2c3cc(ccc31)-c1csc(n1)C[C@H](NC(=O)[C@H](C(C)C)N(C)C(=O)N1CC([C@H](C)N(C)C)C1)C(=O)N1CCC[C@H](N1)C(=O)OCC(C)(C)C2` [Compound A538], in test [1] (Homo sapiens), the EC50 was < 5000 nM. For the same compound, the IC50 was in the range of 10 to 100 nM in test [2] (read-out: KRAS G12C FRET IC50) and 10 to 100 nM in test [3] (Homo sapiens, CAPAN-1, 120 h).
As for `CCn1c(-c2cnccc2COC)c2c3cc(ccc31)-c1cc(O)cc(c1)C[C@H](NC(=O)[C@H](C(C)C)N(C)C(=O)N1CCNCC1)C(=O)N1CCC[C@H](N1)C(=O)OCC(C)(C)C2` [Compound A255], the EC50 in test [1] (Homo sapiens) is < 5000 nM. The IC50 in test [2] (read-out: KRAS G12C FRET IC50) was < 10 nM; in test [3] (Homo sapiens, CAPAN-1, 120 h), > 10000 nM.
Take `CCn1c(-c2cccnc2[C@H](C)OC)c2c3cc(ccc31)-c1csc(n1)C[C@H](NC(=O)[C@H](C(C)C)N(C)C(=O)N1C[C@H](C)N(C)C[C@H]1C)C(=O)N1CCC[C@H](N1)C(=O)OCC(C)(C)C2` [Compound A300]: the EC50 in test [1] (Homo sapiens) was < 5000 nM. Also, the IC50 is < 10 nM in test [2] (read-out: KRAS G12C FRET IC50) and 1000 to 10000 nM in test [3] (Homo sapiens, CAPAN-1, 120 h).
For `CCn1c(-c2cccnc2[C@H](C)OC)c2c3cc(ccc31)-c1csc(n1)C[C@H](NC(=O)[C@H](C(C)C)N1CCCN(C)C1=O)C(=O)N1CCC[C@H](N1)C(=O)OCC(C)(C)C2` [Compound A317], in that order: < 5000 nM, < 10 nM and 1000 to 10000 nM.
The corresponding values for `CCn1c(-c2cccnc2[C@H](C)OC)c2c3cc(ccc31)-c1cc(cc(S(C)(=O)=O)c1)C[C@H](NC(=O)[C@H](C(C)C)N(C)C(C)=O)C(=O)N1CCC[C@H](N1)C(=O)OCC(C)(C)C2` [Compound A154] are < 5000 nM, 10 to 100 nM and > 10000 nM.
For `CCn1c(-c2cccnc2[C@H](C)OC)c2c3cc(ccc31)-c1cc(O)cc(c1)C[C@H](NC(=O)[C@H](C(C)C)N(C)C(=O)C1CC(=O)N(C3CC3)C1)C(=O)N1CCC[C@H](N1)C(=O)OCC(C)(C)C2` (stereo partly drawn) [Compound A252], in that order: < 5000 nM, 10 to 100 nM and 100 to 1000 nM.
Consider `CCO[C@@H]1c2nc(cs2)-c2ccc3c(c2)c(c(-c2cc(C4CCN(C5COC5)CC4)cnc2[C@H](C)OC)n3CC)CC(C)(C)COC(=O)[C@@H]2CCCN(N2)C(=O)[C@H]1NC(=O)[C@H]1[C@H](C)[C@@H]1C` [Compound A449, (1r,2R,3S)—N-((6^3S,3S,4S,Z)-3-ethoxy-1^1-ethyl-1^2-(2-((S)-1-methoxyethyl)-5-(1-(oxetan-3-yl)piperidin-4-yl)pyridin-3-yl)-10,10-dimethyl-5,7-dioxo-6^1,6^2,6^3,6^4,6^5,6^6-hexahydro-1^1H-8-oxa-2 (4,2)-thiazola-1 (5,3)-indola-6 (1,3)-pyridazinacycloundecaphane-4-yl)-2,3-dimethylcyclopropane-1-carboxamide], for which, in test [1], the EC50 was < 5000 nM. Moreover, the IC50 in test [2] (read-out: KRAS G12C FRET IC50) and in test [3] was 100 to 1000 nM throughout.
With `CCn1c(-c2cccnc2[C@H](C)OC)c2c3cc(ccc31)-c1csc(n1)C[C@H](NC(=O)[C@H](C(C)C)N(C)C(=O)N1CC(N3CCC3)C1)C(=O)N1CCC[C@H](N1)C(=O)OCC(C)(C)C2` [Compound A295], the EC50 in test [1] (Homo sapiens) was < 5000 nM. Besides, the IC50 is 10 to 100 nM in test [2] (read-out: KRAS G12C FRET IC50) and 10 to 100 nM in test [3] (Homo sapiens, CAPAN-1, 120 h).
As to `CCn1c(-c2cccnc2[C@H](C)OC)c2c3cc(ccc31)-c1cc(O)cc(c1)C[C@H](NC(=O)[C@H](C(C)C)N(C)C(=O)C13CCC(CO1)C3)C(=O)N1CCC[C@H](N1)C(=O)OCC(C)(C)C2` [Compound A411], the EC50 in test [1] (Homo sapiens) is < 5000 nM. In addition, the IC50 in test [2] (read-out: KRAS G12C FRET IC50) was < 10 nM; in test [3], 100 to 1000 nM.
On to `CCn1c(-c2cccnc2[C@H](C)OC)c2c3cc(ccc31)-c1csc(n1)C[C@H](NC(=O)[C@H](C(C)C)N(C)C(=O)N1CCN(C(C)=O)CC1)C(=O)N1CCC[C@H](N1)C(=O)OCC(C)(C)C2` [Compound A291], for which, in test [1] (Homo sapiens), the EC50 is < 5000 nM. The IC50 was < 10 nM in test [2] (read-out: KRAS G12C FRET IC50) and 10 to 100 nM in test [3] (Homo sapiens, CAPAN-1, 120 h).
Take `CCn1c(-c2cccnc2[C@H](C)OC)c2c3cc(ccc31)-c1csc(n1)C[C@H](NC(=O)[C@H](C(C)C)N(C)C(=O)C1COC1)C(=O)N1CCC[C@H](N1)C(=O)OCC(C)(C)C2` [Compound A245]: in test [1] (Homo sapiens), the EC50 was < 5000 nM. Further, the IC50 was < 10 nM in test [2] (KRAS G12C FRET IC50) and 100 to 1000 nM in test [3] (Homo sapiens, CAPAN-1, 120 h).

By EC50 is commonly meant the concentration needed to bring the measured effect to its halfway point. By IC50 is commonly meant the concentration that inhibits the measured activity by half.
